The source of these data is patent US8703768B2, “Nitrogen containing heteroaryl compounds” (Hoffmann-La Roche Inc., priority 2010, dated 2014).

In general, pIC50 refers to the IC50 on a negative log10 scale, so that one unit is a factor of ten.

The target in this assay is human PDE10A (Homo sapiens (Human), UniProt Q9Y233). The assay can be described thus: human PDE10A full length Scintillation Proximity Assay (SPA). It is filed as biochemical. To be noted: 50 nM cGMP and 50 nM [3H]-cGMP, 20 minutes at room temperature; read-out: PDE10A inhibition IC50. In a few lines: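 Full-length enzyme incubated with compounds; reaction started with cGMP plus [^3H]-cGMP substrate and run 20 min at room temperature. Stopped with yttrium silicate SPA beads in 18 mM zinc sulphate, 1 h shaking, then scintillation counting; background from enzyme-free wells.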
Chain of human PDE10A (Q9Y233 other isoform, or with tags, fused parts or gaps): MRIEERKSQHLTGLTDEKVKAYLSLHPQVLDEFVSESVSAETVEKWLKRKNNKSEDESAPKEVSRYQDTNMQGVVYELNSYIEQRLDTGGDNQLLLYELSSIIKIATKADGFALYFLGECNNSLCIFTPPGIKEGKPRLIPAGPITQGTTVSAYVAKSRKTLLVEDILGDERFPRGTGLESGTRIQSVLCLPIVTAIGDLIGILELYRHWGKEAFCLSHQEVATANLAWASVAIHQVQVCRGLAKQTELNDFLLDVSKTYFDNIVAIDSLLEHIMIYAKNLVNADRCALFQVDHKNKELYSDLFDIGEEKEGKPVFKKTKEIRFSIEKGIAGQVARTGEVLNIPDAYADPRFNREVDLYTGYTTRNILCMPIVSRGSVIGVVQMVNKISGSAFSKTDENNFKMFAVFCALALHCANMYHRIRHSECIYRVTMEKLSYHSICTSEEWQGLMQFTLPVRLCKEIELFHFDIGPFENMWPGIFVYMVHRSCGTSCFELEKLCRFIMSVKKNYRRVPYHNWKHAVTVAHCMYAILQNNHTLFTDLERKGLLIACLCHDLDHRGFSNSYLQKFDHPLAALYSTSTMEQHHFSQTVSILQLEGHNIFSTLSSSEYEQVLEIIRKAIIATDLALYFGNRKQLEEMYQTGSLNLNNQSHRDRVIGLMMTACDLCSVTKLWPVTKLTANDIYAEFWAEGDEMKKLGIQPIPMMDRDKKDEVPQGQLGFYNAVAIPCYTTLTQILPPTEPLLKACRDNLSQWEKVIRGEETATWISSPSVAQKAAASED

pIC50: −log10 of the molar value.

On to `CNC(=O)c1nn(C)cc1NC(=O)c1nc(C2CCCCC2)ncc1Nc1cncnc1` [Example 84, 2-Cyclohexyl-5-(pyrimidin-5-ylamino)-pyrimidine-4-carboxylic acid (1-methyl-3-methylcarbamoyl-1H-pyrazol-4-yl)-amide], for which the pIC50 is 8.72.

Regarding `CN(CC(O)CO)C(=O)c1ccncc1NC(=O)c1nc(C2CC2)ccc1Nc1cncnc1` (stereo not shown) [Example 86, 6-Cyclopropyl-3-(pyrimidin-5-ylamino)-pyridine-2-carboxylic acid {4-[(2,3-dihydroxy-propyl)-methyl-carbamoyl]-pyridin-3-yl}-amide], the pIC50 was 6.67.

Turning to `O=C(Nc1cnccc1C(=O)N1CCC(O)C1)c1nc(C2CC2)ccc1Nc1cncnc1` (stereo not shown) [Example 87], the pIC50 was 6.75.

In the case of `O=C(NC1CC1)c1ccsc1NC(=O)c1nc(C2CC2)ccc1Nc1cncnc1` [Example 89, 6-Cyclopropyl-3-(pyrimidin-5-ylamino)-pyridine-2-carboxylic acid (3-cyclopropylcarbamoyl-thiophen-2-yl)-amide], the pIC50 is 9.30.

On to `O=C(Nc1sccc1C(=O)N1CCOCC1)c1nc(C2CC2)ccc1Nc1cncnc1` [Example 90, 6-Cyclopropyl-3-(pyrimidin-5-ylamino)-pyridine-2-carboxylic acid [3-(morpholine-4-carbonyl)-thiophen-2-yl]-amide], for which the pIC50 was 9.40.

For `CC(C)c1cc(C(=O)N2CCOCC2)c(NC(=O)c2nc(C3CC3)ccc2Nc2cncnc2)s1` [Example 91, 6-Cyclopropyl-3-(pyrimidin-5-ylamino)-pyridine-2-carboxylic acid [5-isopropyl-3-(morpholine-4-carbonyl)-thiophen-2-yl]-amide], the pIC50 is 7.56.

Consider `CC(C)c1ncc(Nc2cncnc2)c(C(=O)Nc2cnccc2C(=O)NCC(C)(C)O)n1` [Example 92, 2-Isopropyl-5-(pyrimidin-5-ylamino)-pyrimidine-4-carboxylic acid [4-(2-hydroxy-2-methyl-propylcarbamoyl)-pyridin-3-yl]-amide], for which the pIC50 is 8.19.

Regarding `CC(C)(O)CNC(=O)c1ccncc1NC(=O)c1nc(C(C)(C)C)ncc1Nc1cncnc1` [Example 93, 2-tert-Butyl-5-(pyrimidin-5-ylamino)-pyrimidine-4-carboxylic acid [4-(2-hydroxy-2-methyl-propylcarbamoyl)-pyridin-3-yl]-amide], the pIC50 was 8.37.

On to `CCN(CC)C(=O)c1ccc(C(=O)NC)c(NC(=O)c2nc(C(C)(C)C)ncc2Nc2cncnc2)c1` [Example 94, 2-{[2-tert-Butyl-5-(pyrimidin-5-ylamino)-pyrimidine-4-carbonyl]-amino}-N^4,N^4-diethyl-N^1-methyl-terephthalamide], for which the pIC50 was 6.41.

Turning to `Cn1cc(NC(=O)c2nc(C3CC3)cnc2Nc2cncnc2)c(C(=O)NCC(C)(C)O)n1` [Example 95, 6-Cyclopropyl-3-(pyrimidin-5-ylamino)-pyrazine-2-carboxylic acid [3-(2-hydroxy-2-methyl-propylcarbamoyl)-1-methyl-1H-pyrazol-4-yl]-amide], the pIC50 was 8.74.

On to `CNC(=O)c1nn(C)cc1NC(=O)c1nc(C2CCCO2)cnc1Nc1cncnc1` (stereo not shown) [Example 96, 3-(Pyrimidin-5-ylamino)-6-(tetrahydro-furan-2-yl)-pyrazine-2-carboxylic acid (1-methyl-3-methylcarbamoyl-1H-pyrazol-4-yl)-amide], for which the pIC50 is 7.02.

Consider `CC(C)(O)CNC(=O)c1ncncc1NC(=O)c1nc(C2CC2)cnc1Nc1cncnc1` [Example 97, 5-{[6-Cyclopropyl-3-(pyrimidin-5-ylamino)-pyrazine-2-carbonyl]-amino}-pyrimidine-4-carboxylic acid (2-hydroxy-2-methyl-propyl)-amide], for which the pIC50 is 8.96.

As to `CC(C)(O)CNC(=O)c1ncccc1NC(=O)c1nc(C2CC2)cnc1Nc1cncnc1` [Example 98, 6-Cyclopropyl-3-(pyrimidin-5-ylamino)-pyrazine-2-carboxylic acid [2-(2-hydroxy-2-methyl-propylcarbamoyl)-pyridin-3-yl]-amide], the pIC50 is 9.40.

With `CC(C)OCCNC(=O)c1ccncc1NC(=O)c1nc(C2CC2)cnc1Nc1cncnc1` [Example 99, 6-Cyclopropyl-3-(pyrimidin-5-ylamino)-pyrazine-2-carboxylic acid [4-(2-isopropoxy-ethylcarbamoyl)-pyridin-3-yl]-amide], the pIC50 was 8.59.

`O=C(NC1CCOC1)c1ccncc1NC(=O)c1nc(C2CC2)cnc1Nc1cncnc1` (stereo not shown) [Example 100, 6-Cyclopropyl-3-(pyrimidin-5-ylamino)-pyrazine-2-carboxylic acid [4-(tetrahydro-furan-3-ylcarbamoyl)-pyridin-3-yl]-amide]: the pIC50 is 8.60.

Regarding `O=C(NCC1CCCO1)c1ccncc1NC(=O)c1nc(C2CC2)cnc1Nc1cncnc1` (stereo not shown) [Example 101, 6-Cyclopropyl-3-(pyrimidin-5-ylamino)-pyrazine-2-carboxylic acid {4-[(tetrahydro-furan-2-ylmethyl)-carbamoyl]-pyridin-3-yl}-amide], the pIC50 is 8.82.

For the molecule `CNC(=O)c1nn(C)cc1NC(=O)c1nc(C2CCOC2)cnc1Nc1cncnc1` (stereo not shown) [Example 102, 3-(Pyrimidin-5-ylamino)-6-(tetrahydro-furan-3-yl)-pyrazine-2-carboxylic acid (1-methyl-3-methylcarbamoyl-1H-pyrazol-4-yl)-amide], the pIC50 was 7.79.

`CNC(=O)c1nn(C)cc1NC(=O)c1nc(C2CCCO2)ccc1Nc1cncnc1` (stereo not shown) [Example 103, 3-(Pyrimidin-5-ylamino)-6-(tetrahydro-furan-2-yl)-pyridine-2-carboxylic acid (1-methyl-3-methylcarbamoyl-1H-pyrazol-4-yl)-amide]: the pIC50 is 7.23.

As for `CC(C)(O)CNC(=O)c1ccncc1NC(=O)c1nc(C2CC2)cnc1Nc1cncnc1` [Example 105, 6-Cyclopropyl-3-(pyrimidin-5-ylamino)-pyrazine-2-carboxylic acid [4-(2-hydroxy-2-methyl-propylcarbamoyl)-pyridin-3-yl]-amide], the pIC50 was 8.96.

For `O=C(NC1COC1)c1ccncc1NC(=O)c1nc(C2CC2)cnc1Nc1cncnc1` [Example 106, 6-Cyclopropyl-3-(pyrimidin-5-ylamino)-pyrazine-2-carboxylic acid [4-(oxetan-3-ylcarbamoyl)-pyridin-3-yl]-amide], the pIC50 was 8.59.

Regarding `CCn1cc(NC(=O)c2nc(C3CC3)cnc2Nc2cncnc2)c(C(=O)NC)n1` [Example 107, 6-Cyclopropyl-N-(1-ethyl-3-(methylcarbamoyl)-1H-pyrazol-4-yl)-3-(pyrimidin-5-ylamino)pyrazine-2-carboxamide], the pIC50 is 6.93.

For `CCn1cc(NC(=O)c2nc(C3CC3)cnc2Nc2cncnc2)c(C(=O)NCC2CCCO2)n1` (stereo not shown) [Example 108, 6-Cyclopropyl-N-(1-ethyl-3-((tetrahydrofuran-2-yl)methylcarbamoyl)-1H-pyrazol-4-yl)-3-(pyrimidin-5-ylamino)pyrazine-2-carboxamide], the pIC50 was 7.40.

With `Cn1cc(NC(=O)c2nc(C3CC3)cnc2Nc2cncnc2)c(C(=O)NCC2CCCO2)n1` (stereo not shown) [Example 109, 6-Cyclopropyl-N-(1-methyl-3-((tetrahydrofuran-2-yl)methylcarbamoyl)-1H-pyrazol-4-yl)-3-(pyrimidin-5-ylamino)pyrazine-2-carboxamide], the pIC50 is 7.72.

For `CC(C)(O)CNC(=O)c1cc(F)c(F)cc1NC(=O)c1nc(C2CC2)cnc1Nc1cncnc1` [Example 110, 6-Cyclopropyl-3-(pyrimidin-5-ylamino)-pyrazine-2-carboxylic acid [4,5-difluoro-2-(2-hydroxy-2-methyl-propylcarbamoyl)-phenyl]-amide], the pIC50 was 9.22.

With `CN(CC(C)(C)O)C(=O)c1nn(C)cc1NC(=O)c1nc(C2CC2)cnc1Nc1cncnc1` [Example 111, 6-Cyclopropyl-N-(3-((2-hydroxy-2-methylpropyl)(methyl)carbamoyl)-1-methyl-1H-pyrazol-4-yl)-3-(pyrimidin-5-ylamino)pyrazine-2-carboxamide], the pIC50 was 7.82.

As for `Cc1ncc(Nc2cncnc2)c(C(=O)Nc2cn(C)nc2C(=O)NCC(C)(C)O)n1` [Example 112, N-(3-(2-Hydroxy-2-methylpropylcarbamoyl)-1-methyl-1H-pyrazol-4-yl)-2-methyl-5-(pyrimidin-5-ylamino)pyrimidine-4-carboxamide], the pIC50 was 7.10.

Take `COC(C)(C)CNC(=O)c1ccncc1NC(=O)c1nc(C2CC2)cnc1Nc1cncnc1` [Example 113, 6-Cyclopropyl-3-(pyrimidin-5-ylamino)-pyrazine-2-carboxylic acid [4-(2-methoxy-2-methyl-propylcarbamoyl)-pyridin-3-yl]-amide]: the pIC50 is 8.80.

Regarding `COCC(C)(C)CNC(=O)c1ccncc1NC(=O)c1nc(C2CC2)cnc1Nc1cncnc1` [Example 114, 6-Cyclopropyl-3-(pyrimidin-5-ylamino)-pyrazine-2-carboxylic acid [4-(3-methoxy-2,2-dimethyl-propylcarbamoyl)-pyridin-3-yl]-amide], the pIC50 is 8.96.

Take `CNC(=O)c1nn(C)cc1NC(=O)c1nc(C(C)O)cnc1Nc1cncnc1` (stereo not shown) [Example 115, 6-(1-Hydroxy-ethyl)-3-(pyrimidin-5-ylamino)-pyrazine-2-carboxylic acid (1-methyl-3-methylcarbamoyl-1H-pyrazol-4-yl)-amide]: the pIC50 was 6.77.

Consider `CNC(=O)c1c(NC(=O)c2nc(C3CC3)cnc2Nc2cncnc2)cnn1C` [Example 116, 6-Cyclopropyl-3-(pyrimidin-5-ylamino)-pyrazine-2-carboxylic acid (1-methyl-5-methylcarbamoyl-1H-pyrazol-4-yl)-amide], for which the pIC50 was 8.35.

In the case of `COCCN(C)C(=O)c1ncccc1NC(=O)c1nc(C2CC2)cnc1Nc1cncnc1` [Example 117, 6-Cyclopropyl-3-(pyrimidin-5-ylamino)-pyrazine-2-carboxylic acid {2-[(2-methoxy-ethyl)-methyl-carbamoyl]-pyridin-3-yl}-amide], the negative-log IC50 (pIC50) was 7.57.
